Assay results as given in ChEMBL document CHEMBL1909046, “DrugMatrix in vitro pharmacology data”.

Experiments:
[1] = DRUGMATRIX: Atrial Natriuretic Factor (ANF) radioligand binding (ligand: [125I] ANF (rat)); format: cell membranes, Cavia porcellus, Dunkin-Hartley, Adrenal gland, Membrane; details: Not Active = under 50% inhibition at 10 µM
[2] = DRUGMATRIX: Calcium Channel Type L, Benzothiazepine radioligand binding (ligand: [3H] Diltiazem); format: cell membranes, Rattus norvegicus, Wistar, Brain, Membrane; details: Not Active = under 50% inhibition at 10 µM
Substance-P receptor = Substance-P receptor (Homo sapiens, UniProt P25103); format: cell membranes, Membrane; details: cho; also: in other assays of this panel Not Active means under 50% inhibition at 10 µM
[3] = target: T1, C-X-C chemokine receptor type 1 (Homo sapiens, UniProt P25024); also: in other assays of this panel Not Active means under 50% inhibition at 10 µM
T1 sequence (P25024 whole entry): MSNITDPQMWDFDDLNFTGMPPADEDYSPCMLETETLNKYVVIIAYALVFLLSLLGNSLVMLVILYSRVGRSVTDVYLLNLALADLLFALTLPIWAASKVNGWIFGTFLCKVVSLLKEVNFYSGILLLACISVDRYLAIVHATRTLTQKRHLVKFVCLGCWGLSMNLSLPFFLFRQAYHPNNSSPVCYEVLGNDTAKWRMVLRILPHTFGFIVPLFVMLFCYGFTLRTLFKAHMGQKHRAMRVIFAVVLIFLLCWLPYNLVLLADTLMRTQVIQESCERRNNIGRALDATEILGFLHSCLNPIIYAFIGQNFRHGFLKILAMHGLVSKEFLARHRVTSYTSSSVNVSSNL

Melanocortin receptor 4 = Melanocortin receptor 4 (Homo sapiens, UniProt P32245); format: cell membranes, Membrane; details: hek293; also: in other assays of this panel Not Active means under 50% inhibition at 10 µM
[4] = DRUGMATRIX: Phosphodiesterase PDE3 enzyme inhibition (substrate: [3H]cAMP + cAMP); format: tissue-based, Homo sapiens; details: platelet, Not Active = under 50% inhibition at 10 µM
[5] = target: T2, 5-hydroxytryptamine receptor 1A (Rattus norvegicus, UniProt P19327); format: cell membranes, CHO-K1, Membrane; also: in other assays of this panel Not Active means under 50% inhibition at 10 µM
T2 sequence (P19327 whole entry): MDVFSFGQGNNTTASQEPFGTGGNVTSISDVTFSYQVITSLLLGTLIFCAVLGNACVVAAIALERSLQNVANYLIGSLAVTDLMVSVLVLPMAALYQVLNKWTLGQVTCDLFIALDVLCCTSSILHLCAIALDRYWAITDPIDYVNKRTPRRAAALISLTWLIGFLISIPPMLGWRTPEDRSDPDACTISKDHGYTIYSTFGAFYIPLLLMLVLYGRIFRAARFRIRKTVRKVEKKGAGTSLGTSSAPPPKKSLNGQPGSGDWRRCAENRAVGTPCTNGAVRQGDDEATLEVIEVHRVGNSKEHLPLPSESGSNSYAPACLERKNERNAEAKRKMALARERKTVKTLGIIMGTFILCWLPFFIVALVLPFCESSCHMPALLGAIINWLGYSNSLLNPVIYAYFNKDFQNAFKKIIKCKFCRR

Chain of Melanocortin receptor 4 (P32245 whole entry): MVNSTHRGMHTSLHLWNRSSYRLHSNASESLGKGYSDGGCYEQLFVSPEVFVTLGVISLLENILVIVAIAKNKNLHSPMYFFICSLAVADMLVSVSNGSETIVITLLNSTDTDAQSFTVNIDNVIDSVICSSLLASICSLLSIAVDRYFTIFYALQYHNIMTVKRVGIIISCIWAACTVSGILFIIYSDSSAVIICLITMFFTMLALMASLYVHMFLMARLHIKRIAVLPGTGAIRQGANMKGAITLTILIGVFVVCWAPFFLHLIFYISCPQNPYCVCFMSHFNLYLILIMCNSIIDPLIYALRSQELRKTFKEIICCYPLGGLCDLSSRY
Chain of Substance-P receptor (P25103 whole entry): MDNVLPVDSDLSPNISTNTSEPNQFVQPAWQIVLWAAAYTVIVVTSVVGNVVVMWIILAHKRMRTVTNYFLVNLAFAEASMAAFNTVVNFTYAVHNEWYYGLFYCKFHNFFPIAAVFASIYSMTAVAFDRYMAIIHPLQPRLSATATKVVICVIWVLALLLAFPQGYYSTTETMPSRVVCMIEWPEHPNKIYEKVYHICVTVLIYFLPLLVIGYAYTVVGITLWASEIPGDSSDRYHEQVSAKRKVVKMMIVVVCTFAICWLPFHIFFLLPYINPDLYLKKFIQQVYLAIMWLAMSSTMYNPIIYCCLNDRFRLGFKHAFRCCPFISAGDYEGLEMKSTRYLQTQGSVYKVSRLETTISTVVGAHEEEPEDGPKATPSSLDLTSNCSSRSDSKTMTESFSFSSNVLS

Compound | IC50 [1] | Ki [1] | IC50 [2] | Ki [2] | IC50 (Substance-P receptor) | IC50 [3] | IC50 (Melanocortin receptor 4) | IC50 [4] | Ki [4] | IC50 ([5]; cho-k1) | Ki (Substance-P receptor) | Ki [3] | Ki (Melanocortin receptor 4) | Ki ([5]; cho-k1) | IC50 ([2]; read-out: IC50) [nM] | Ki ([2]; read-out: Ki) [nM] | IC50 ([5]; read-out: IC50) [nM] | Ki ([5]; read-out: Ki) [nM] | IC50 ([4]; read-out: IC50) [nM]
C=CCO [ALLYL ALCOHOL] | Not Active | Not Active | Not Active | Not Active | Not Active | Not Active | Not Active | Not Active | Not Active | Not Active |  |  |  |  |  |  |  |  | 
CHROMIC CHLORIDE | Not Active | Not Active | Not Active | Not Active | Not Active | Not Active | Not Active | Not Active | Not Active | Not Active | Not Active | Not Active | Not Active | Not Active |  |  |  |  | 
Clc1cc(Cl)c(OCC#CI)cc1Cl [HALOPROGIN] | Not Active | Not Active | Not Active | Not Active | Not Active | Not Active | Not Active | Not Active | Not Active | Not Active |  |  |  |  |  |  |  |  | 
C[N+](C)(C)CCOP(=O)([O-])OC[C@H](O)CO | Not Active | Not Active | Not Active | Not Active | Not Active | Not Active | Not Active | Not Active | Not Active | Not Active |  |  |  |  |  |  |  |  | 
COc1ccc(C[C@H](N)C(=O)N[C@H]2[C@@H](O)[C@H](n3cnc4c(N(C)C)ncnc43)O[C@@H]2CO)cc1 [PUROMYCIN] | Not Active | Not Active | Not Active | Not Active | Not Active | Not Active | Not Active | Not Active | Not Active | Not Active |  |  |  |  |  |  |  |  | 
ClC1=C(Cl)[C@]2(Cl)[C@@H]3[C@@H]4C[C@@H]([C@H]5O[C@@H]45)[C@@H]3[C@@]1(Cl)C2(Cl)Cl [DIELDRIN] | Not Active | Not Active | Not Active | Not Active | Not Active | Not Active | Not Active | Not Active | Not Active | Not Active |  |  |  |  |  |  |  |  | 
CARBOXYMETHYLCELLULOSE | Not Active | Not Active | Not Active | Not Active | Not Active | Not Active | Not Active | Not Active | Not Active | Not Active | Not Active | Not Active | Not Active | Not Active |  |  |  |  | 
CC(CN1c2ccccc2Sc2ccccc21)N(C)C (configuration not stated) [PROMETHAZINE] | Not Active | Not Active |  |  | Not Active | Not Active | Not Active | Not Active | Not Active |  |  |  |  |  | 2780 | 2470 | 2600 | 1480 | 
NCC(CC(=O)O)c1ccc(Cl)cc1 (configuration not stated) [BACLOFEN] | Not Active | Not Active | Not Active | Not Active | Not Active | Not Active | Not Active | Not Active | Not Active | Not Active |  |  |  |  |  |  |  |  | 
CN(CCOc1ccc(C[C@H](Nc2ccccc2C(=O)c2ccccc2)C(=O)O)cc1)c1ccccn1 | Not Active | Not Active | Not Active | Not Active | Not Active | Not Active | Not Active |  |  | Not Active |  |  |  |  |  |  |  |  | 19400
COPPER(II) OXIDE | Not Active | Not Active | Not Active | Not Active | Not Active | Not Active | Not Active | Not Active | Not Active | Not Active | Not Active | Not Active | Not Active | Not Active |  |  |  |  | 
Cl.NC[C@H]1CC[C@H](C(=O)Oc2ccc(CCC(=O)O)cc2)CC1 [CETRAXATE HYDROCHLORIDE] | Not Active | Not Active | Not Active | Not Active | Not Active | Not Active | Not Active | Not Active | Not Active | Not Active |  |  |  |  |  |  |  |  | 
